Experimental data as given in US8227421B2, “Fluorinated GHRH antagonists” (University of Miami, priority 2009, dated 2012).

System: PC-3 human hormone-independent prostate cancer
Assay: Effect of treatment with GH-RH antagonists on PC-3 human prostate cancer xenografts in nude mice
Assay type: in vivo
Settings: male nude mice, s.c. PC-3 xenografts, 2 ug/day s.c.
Procedure: Male nude mice were implanted s.c. with 3 mm3 pieces of PC-3 human hormone-independent prostate cancer tissue on both flanks. When tumors reached a volume of approximately 50 mm3, the mice were divided into 14 experimental groups with 8 to 10 animals in each group and received single daily injections for 28 as follows: 1. Control (vehicle solution); 2. P-12211 (2 μg/day s.c.); 3. P-12307 (2 μg/day s.c.); 4. P-12317 (2 μg/day s.c.); 5. P-12408 (2 μg/day s.c.); 6. P-12409 (2 μg/day s.c.); 7. P-12457 (2 μg/day s.c.); 8. P-12473 (2 μg/day s.c.); 9. P-12479 (2 μg/day s.c.); 10. P-12600 (2 μg/day s.c.); 11. P-12601 (2 μg/day s.c.); 12. P-12602 (2 μg/day s.c.); 13. P-12603 (2 μg/day s.c.); and 14. P-12610 (2 μg/day s.c.).
The inhibitory effect of P-12473, P-12479, P-12600, P-12601, P-12602, and P-12610 were statistically significant (p<0.001).
Effect of Treatment with GH-RH Antagonists on PC-3 Human Prostate Cancer Xenografts in Nude Mice

## [PhAc^0-Tyr^1, D-Arg^2, Cpa^6, Ala^8, Har^9, Fpa5^10, His^11, Orn^12, Abu^15, His^20, Orn^21, Nle^27, D-Arg^28, Har^29, Ada^30]hGH-RH(1-30)NH2 [Peptide P-12610]
Single daily injections for 28
  Tumor Growth after 4 weeks (%): 474.98%
Single daily injections for 28, versus control
  Tumor growth inhibition after 4 weeks (%): 77.78%
